According to ChEMBL document CHEMBL1125440, “Synthesis and antiviral activity of acyclic nucleosides with a 3(S),5-dihydroxypentyl or 4(R)-methoxy-3(S),5-dihydroxypentyl side chain” (1992):
≈ marks a conversion by molar mass, not a printed value.

Columns and labels:
E6SM [1] = test: (§1) Compounds was evaluated for its inhibitory effect on cytopathogenicity of vesicular stomatitis virus (VSV) in E6SM cells; format: functional, Homo sapiens
E6SM [2] = test: Minimum inhibitory concentration (MIC) required to reduce B2006 strain of TK-HSV-1 induced cytopathogenicity by 50% in E6SM cells; format: functional; conditions: Homo sapiens
E6SM [3] = test: Minimum inhibitory concentration (MIC) required to reduce 196 strain of HSV-2 induced cytopathogenicity by 50% in E6SM cells; format: functional; conditions: Homo sapiens
E6SM [4] = test: Minimum inhibitory concentration (MIC) required to reduce McIntyre strain of HSV-1 induced cytopathogenicity by 50% in E6SM cells; format: functional; conditions: Homo sapiens
E6SM [5] = test: Minimum inhibitory concentration (MIC) required to reduce G strain of HSV-2 induced cytopathogenicity by 50% in E6SM cells; format: functional; conditions: Homo sapiens
E6SM [6] = test: Minimum inhibitory concentration (MIC) required to reduce Lyons strain of HSV-2 induced cytopathogenicity by 50% in E6SM cells; format: functional; conditions: Homo sapiens
E6SM [7] = test: (§2) Compounds was evaluated for its inhibitory effect on cytopathogenicity of vaccinia virus (VV) in E6SM cells; format: functional, Homo sapiens
E6SM [8] = test: Minimum inhibitory concentration (MIC) required to reduce VMW 1837 strain of TK-HSV-1 induced cytopathogenicity by 50% in E6SM cells; format: functional; conditions: Homo sapiens
E6SM [9] = test: Minimum inhibitory concentration (MIC) required to reduce F strain of HSV-1 induced cytopathogenicity by 50% in E6SM cells; format: functional; conditions: Homo sapiens
E6SM [10] = test: Minimum cytotoxic concentration (MCC) required to cause a microscopically detectable alteration of normal cell morphology against E6SM cells; format: functional; conditions: Homo sapiens
E6SM [11] = test: Minimum inhibitory concentration (MIC) required to reduce KOS strain of HSV-1 induced cytopathogenicity by 50% in E6SM cells; format: functional; conditions: Homo sapiens
E6SM [12] = test: as §1; format: functional; conditions: Homo sapiens
E6SM [13] = test: as §2; format: functional; conditions: Homo sapiens

Row | SMILES | VSV (E6SM [1]) | MIC (E6SM [2]) [µg/mL] | MIC (E6SM [3]) [µg/mL] | MIC (E6SM [4]) [µg/mL] | MIC (E6SM [5]) [µg/mL] | MIC (E6SM [6]) [µg/mL] | VV (E6SM [7]) | MIC (E6SM [8]) [µg/mL] | MIC (E6SM [9]) [µg/mL] | MCC (E6SM [10]) [µg/mL] | MIC (E6SM [11]) [µg/mL] | MIC (E6SM [12]) [µg/mL] | MIC (E6SM [13]) [µg/mL]
1 | Nc1nc2c(ncn2COCCO)c(=O)[nH]1 [ACYCLOVIR] | >400 | 70 (≈ 311 µM) | 0.015 (≈ 0.0666 µM) | 0.02 (≈ 0.0888 µM) | 0.04 (≈ 0.178 µM) | 0.02 (≈ 0.0888 µM) | >400 | 10 (≈ 44.4 µM) | 0.04 (≈ 0.178 µM) | > 400 | 0.07 (≈ 0.311 µM) |  | 
2 | Nc1nc(O)c2ncn(CC[C@H](O)CCO)c2n1 |  | > 400 | 20 (≈ 79 µM) | 0.6 (≈ 2.37 µM) | 4 (≈ 15.8 µM) | 5 (≈ 19.7 µM) |  | > 400 | 0.4 (≈ 1.58 µM) | > 400 | 0.4 (≈ 1.58 µM) | > 400 | > 400
3 | Nc1ncnc2c1ncn2C[C@H](O)CO [(S)-DHPA] |  | 300 (≈ 1430 µM) | 300 (≈ 1430 µM) | 70 (≈ 335 µM) | 300 (≈ 1430 µM) | 250 (≈ 1190 µM) |  | > 400 | 70 (≈ 335 µM) | > 400 | 300 (≈ 1430 µM) | 70 (≈ 335 µM) | 70 (≈ 335 µM)
